{
  "source": "patent US10041115B2",
  "about": "“3′-OH unblocked, fast photocleavable terminating nucleotides and methods for nucleic acid sequencing” (LASERGEN, INC., priority 2011, dated 2018)",
  "key": {"[1]": {"assay": "Photochemical cleavage assays of incorporated nucleotide analogs (365 nm UV light, DT50)", "assay_type": "physicochemical", "conditions": "for DT50 in 1 mM NaN3, 50 mM DTT / DT50 in 1 mM NaN3, No DTT: 365 nm UV, 0.70 W/cm^2; for DT50 values: UV photochemical cleavage experiments; for faster photochemical cleavage rates of ds2 isomers compared with their ds1 counterparts, factor: ds2 vs ds1 isomer of the same analog", "procedure": "As used herein, the term “DT50” refers to the amount of time required to cleavage 50% of the base analog incorporated in the primer-template complex.\nTo compare the rates of photochemical cleavage between the nucleotide analogs described here, a protocol was developed to deliver a daily light intensity output of 0.70±0.01 W/cm^2 to samples, see below.\nThe power supply was turned on for about 30 min prior to that of the lamp and recirculation bath as described by the manufacturer. The IR liquid filter was cooled to 9° C. Light intensity was determined using a model PM100 power meter (Thorlabs), a 1000 μm pinhole (Edmund Optics), a modified 0.5 mL Eppendorf tube cut in half, and a 3-axis manual translation stage (Newport), see FIG. 5. The half cut Eppendorf tube was positioned in front of the pinhole and power meter detector head to account for the geometric shape distortion of the light as it passes through a reaction solution. The translation stage was then used to align the tube/pinhole/detector device with the highest intensity from the arc beam.\nTo stabilize its output, the lamp was left on for one hour prior to intensity measurements. Thereafter, the measured power was adjusted by increasing the current from the power supply. In order to achieve intensity (I) of 0.70 W/cm^2, the measured power (P) was adjusted to ˜5.5 mW, according to the equation:\n[formula] where r is the radius of pinhole.\nThe beam was then focused by placing an 0.5 mL Eppendorf tube into the sample holder, the tube of which was modified with an internal alignment card to provide reference lines for volume heights of 10 μL and 20 μL, see FIG. 5. The reference lines enabled the beam to be centered for a given reaction volume. Beam alignment was further verified by observing the mercury arc image of the lamp produced by the rear reflector. A second alignment card was placed into the rotating sample holder to view the image, which when properly aligned using the reflector would produce an inverted arc image on the arc gap itself. This step ensured that arc hotspots were not superimposed, which could cause overheating while maintaining a power output of ˜5.5 mW. The speed of the rotating sample holder was adjusted within a range of 1,200-1,350 rpm using a Nova-Strobe DA Plus stroboscope (Monarch Instrument) by adjusting the motor's torque with an adjustment screw.\nPhotochemical cleavage assays: Nucleotide analogs were incorporated using 10 μL reactions, as described for the PEP assays, at a final concentration of 100 nM. […] OligoTemplate-2, oligoTemplate-5, and oligoTemplate-4 each hybridized with BODIPY-FL labeled primer-1 were used for C^7-HOMedA, C^7-HOMedG, and HOMedU analogs, respectively. OligoTemplate-8 hybridized with BODIPY-FL labeled primer-3 was used to assay HOMedC analogs. Incorporated reactions were quenched with either 1 mM sodium azide solution; 1 mM sodium azide, 50 mM DTT solution; or reagents C-G (see key in FIG. 4), exposed to 365 nm ultraviolet (UV) light for various time points using our UV deprotector, and then placed on ice."}, "DNA synthesis": {"test_system": "DNA synthesis", "assay": "Termination assays (incorporation and termination of DNA synthesis)", "assay_type": "biochemical", "conditions": "10 μM", "text": "Another class of 3′-OH unblocked nucleotides has been described by Mitra et al. (2003) and Turcatti et al. (2008), which rely on steric hindrance of the bulky dye group to stop incorporation after the addition of the first nucleotide. It is noted that the substituted 2-nitrobenzyl nucleotide analogs described by Wu et al. (2007), Litosh et al. (2011), and Gardner et al., 2012 cause termination of DNA synthesis without the requirement of bulky substituents such as fluorescent dyes. A further class of 3′-unblocked nucleotides has been described by Helicos Biosciences. These nucleotides use a second nucleoside or nucleotide analog that acts as an inhibitor of DNA synthesis (Bowers et al., 2009; U.S. Pat. No. 7,476,734). A significant difference in termination properties is observed when comparing compounds of the present invention with those described by Bowers. For example, Bowers et al. described pre-steady-state kinetics employing two-base homopolymer templates, for which kpol(+2) rates were measured for all of their 3′-OH unblocked ‘virtual’ terminators. Bowers et al. conducted their termination experiments at submicromolar nucleotide concentrations (i.e., from 100 to 250 nM), termination assays. In contrast, several compounds of the present invention were performed at 10 μM over the time course of 0.5 to 20 min. […]"}, "[2]": {"conditions": "Table 3, reversible terminators"}, "[3]": {"conditions": "Table 3, reversible terminators, [a] transient product considered as cleaved product"}, "[4]": {"conditions": "Table 2, C^7-HOMedG analogs, average ± 1SD, triplicate"}, "[5]": {"conditions": "α-tert-butyl C^7-HOMedG analogs, ds1 isomers"}, "[6]": {"conditions": "Table 1, C^7-HOMedA analogs, average ± 1SD, triplicate"}},
  "data": [
    {"smiles": "COc1ccc([N+](=O)[O-])c([C@@H](OCc2cn([C@H]3C[C@H](O)[C@@H](COP(=O)(O)OP(=O)(O)OP(=O)(O)O)O3)c(=O)[nH]c2=O)C(C)(C)C)c1", "note": "[dU.VI, 5-[(S)-1-(5-Methoxy-2-nitrophenyl)-2,2-dimethyl-propyloxy]methyl-2′-deoxyuridine-5′-triphosphate]", "values": [
      {"measurement": "DT50 in 1 mM NaN3, 50 mM DTT", "setting": "[1]; [2]", "value": "0.7 ± 0.1", "unit": "s"},
      {"measurement": "DT50 in 1 mM NaN3, No DTT", "setting": "[1]; [3]", "value": "0.7 ± 0.1^[a] sec"},
      {"measurement": "incorporated at the first base position", "setting": "DNA synthesis; by 2 min", "value": 100, "unit": "%"},
      {"measurement": "signal at the expected second-base position (termination of DNA synthesis)", "setting": "DNA synthesis; incubation times up to 20 min", "value": "No appreciable signal could be detected"}
    ]},
    {"smiles": "COc1cc(C(OCc2cn([C@H]3C[C@H](O)[C@@H](COP(=O)(O)OP(=O)(O)OP(=O)(O)O)O3)c3nc(N)[nH]c(=O)c23)C(C)(C)C)c([N+](=O)[O-])cc1OC", "note": "(single isomer, unassigned) [dG.V.d ds1, 7-[1-(4,5-dimethoxy-2-nitrophenyl)-2,2-dimethyl-propyloxy]methyl-7-deaza-2′-deoxyguanosine-5′-triphosphate]", "values": [
      {"measurement": "DT50 in 1 mM NaN3, 50 mM DTT", "setting": "[1]; [4]", "value": "2.3 ± 0.2", "unit": "s"},
      {"measurement": "DT50 in 1 mM NaN3, No DTT", "setting": "[1]; [4]", "value": "2.4 ± 0.1", "unit": "s"},
      {"measurement": "faster cleavage rates compared with mono-substituted 4-OMe isomer", "setting": "[1]; [5]", "value": 2.0, "unit": "×"},
      {"measurement": "faster cleavage rates compared with mono-substituted 5-OMe isomer", "setting": "[1]; [5]", "value": 1.5, "unit": "×"}
    ]},
    {"smiles": "COc1ccc([N+](=O)[O-])c([C@@H](OCc2cn([C@H]3C[C@H](O)[C@@H](COP(=O)(O)OP(=O)(O)OP(=O)(O)O)O3)c(=O)nc2N)C(C)(C)C)c1", "note": "[dC.VI, 5-[(S)-1-(5-methoxy-2-nitrophenyl)-2,2-dimethyl-propyloxy]methyl-2′-deoxycytidine-5′-triphosphate]", "values": [
      {"measurement": "DT50 in 1 mM NaN3, 50 mM DTT", "setting": "[1]; [2]", "value": "0.6 ± 0.1", "unit": "s"},
      {"measurement": "DT50 in 1 mM NaN3, No DTT", "setting": "[1]; [3]", "value": "0.6 ± 0.1^[a] sec"}
    ]},
    {"smiles": "Nc1nc2c(c(COCc3ccccc3[N+](=O)[O-])cn2[C@H]2C[C@H](O)[C@@H](COP(=O)(O)OP(=O)(O)OP(=O)(O)O)O2)c(=O)[nH]1", "note": "[dG.I, 7-(2-nitrobenzyloxy)methyl-7-deaza-2′-deoxyguanosine-5′-triphosphate]", "values": [
      {"measurement": "DT50 in 1 mM NaN3, 50 mM DTT", "setting": "[1]; [4]", "value": "8.1 ± 0.2", "unit": "s"},
      {"measurement": "DT50 in 1 mM NaN3, No DTT", "setting": "[1]; [4]", "value": "9.2 ± 0.3", "unit": "s"},
      {"measurement": "DT50 in 1 mM NaN3, 50 mM DTT", "setting": "[1]; [2]", "value": "8.1 ± 0.2", "unit": "s"},
      {"measurement": "DT50 in 1 mM NaN3, No DTT", "setting": "[1]; [3]", "value": "9.2 ± 0.3", "unit": "s"},
      {"measurement": "DT50 values", "setting": "[1]", "value": 9.2, "unit": "s"}
    ]},
    {"smiles": "COc1ccc(C(OCc2cn([C@H]3C[C@H](O)[C@@H](COP(=O)(O)OP(=O)(O)OP(=O)(O)O)O3)c3ncnc(N)c23)C(C)C)c([N+](=O)[O-])c1", "note": "(single isomer, unassigned) [dA.III.b ds2, 7-[1-(4-methoxy-2-nitrophenyl)-2-methyl-propyloxy]methyl-7-deaza-2′-deoxyadenosine-5′-triphosphate]", "values": [
      {"measurement": "DT50 in 1 mM NaN3, 50 mM DTT", "setting": "[1]; [6]", "value": "1.0 ± 0.1", "unit": "s"},
      {"measurement": "DT50 in 1 mM NaN3, No DTT", "setting": "[1]; [6]", "value": "1.1 ± 0.1", "unit": "s"},
      {"measurement": "faster photochemical cleavage rates of ds2 isomers compared with their ds1 counterparts, factor", "setting": "[1]", "value": 6.4, "unit": "×"}
    ]},
    {"smiles": "COc1ccc([N+](=O)[O-])c(C(OCc2cn([C@H]3C[C@H](O)[C@@H](COP(=O)(O)OP(=O)(O)OP(=O)(O)O)O3)c3nc(N)[nH]c(=O)c23)C(C)(C)C)c1", "note": "(stereo partly shown) [dG.V.c ds1, 7-[1-(5-methoxy-2-nitrophenyl)-2,2-dimethyl-propyloxy]methyl-7-deaza-2′-deoxyguanosine-5′-triphosphate]", "values": [
      {"measurement": "DT50 in 1 mM NaN3, 50 mM DTT", "setting": "[1]; [4]", "value": "3.0 ± 0.1", "unit": "s"},
      {"measurement": "DT50 in 1 mM NaN3, No DTT", "setting": "[1]; [4]", "value": "3.5 ± 0.3", "unit": "s"},
      {"measurement": "rate increases, dG.V.c compared with dG.V.a", "setting": "[1]; same isomer (ds1 or ds2) of dG.V.c vs dG.V.a", "value": 3.6, "unit": "×"},
      {"measurement": "faster photochemical cleavage rates compared with the corresponding 4-OMe isomers", "setting": "[1]; α-tert-butyl C^7-HOMedG analogs, 5-OMe vs 4-OMe", "value": 1.4, "unit": "× fold"}
    ]},
    {"smiles": "CC(C)C(OCc1cn([C@H]2C[C@H](O)[C@@H](COP(=O)(O)OP(=O)(O)OP(=O)(O)O)O2)c2ncnc(N)c12)c1ccccc1[N+](=O)[O-]", "note": "(single isomer, unassigned) [dA.III.a ds1, 7-[1-(2-nitrophenyl)-2-methyl-propyloxy]methyl-7-deaza-2′-deoxyadenosine-5′-triphosphate]", "values": [
      {"measurement": "DT50 in 1 mM NaN3, 50 mM DTT", "setting": "[1]; [6]", "value": "4.4 ± 0.2", "unit": "s"},
      {"measurement": "DT50 in 1 mM NaN3, No DTT", "setting": "[1]; [6]", "value": "4.5 ± 0.2", "unit": "s"},
      {"measurement": "DT50 value of ds1 isomer compared with the parent dA.I analog", "setting": "[1]; ds1 isomers of the α-isopropyl C^7-HOMedA set", "value": "higher"}
    ]},
    {"smiles": "CC(C)(C)C(OCc1cn([C@H]2C[C@H](O)[C@@H](COP(=O)(O)OP(=O)(O)OP(=O)(O)O)O2)c2nc(N)[nH]c(=O)c12)c1ccccc1[N+](=O)[O-]", "note": "(stereo partly shown) [dG.V.a ds1, 7-[1-(2-nitrophenyl)-2,2-dimethyl-propyloxy]methyl-7-deaza-2′-deoxyguanosine-5′-triphosphate]", "values": [
      {"measurement": "DT50 in 1 mM NaN3, 50 mM DTT", "setting": "[1]; [4]", "value": "10.7 ± 0.2", "unit": "s"},
      {"measurement": "DT50 in 1 mM NaN3, No DTT", "setting": "[1]; [4]", "value": "11.0 ± 0.4", "unit": "s"}
    ]},
    {"smiles": "COc1cc(C(OCc2cn([C@H]3C[C@H](O)[C@@H](COP(=O)(O)OP(=O)(O)OP(=O)(O)O)O3)c3nc(N)[nH]c(=O)c23)C(C)(C)C)c([N+](=O)[O-])cc1OC", "note": "(single isomer, unassigned) [dG.V.d ds2, 7-[1-(4,5-dimethoxy-2-nitrophenyl)-2,2-dimethyl-propyloxy]methyl-7-deaza-2′-deoxyguanosine-5′-triphosphate]", "values": [
      {"measurement": "DT50 in 1 mM NaN3, 50 mM DTT", "setting": "[1]; [4]", "value": "0.8 ± 0.1", "unit": "s"},
      {"measurement": "DT50 in 1 mM NaN3, No DTT", "setting": "[1]; [4]", "value": "0.8 ± 0.1", "unit": "s"},
      {"measurement": "DT50 values", "setting": "[1]", "value": 0.8, "unit": "s"},
      {"measurement": "faster photochemical cleavage rates of ds2 isomers compared with their ds1 counterparts, factor", "setting": "[1]", "value": 3.0, "unit": "×"}
    ]}
  ]
}
